# Like-named read-outs stand apart in the source and are kept apart here.
# Columns and labels:
# H1975 = assay: Cell growth inhibition (CellTiter-Glo), NSCLC line H1975; type: cell-based; settings: H1975 non-small cell lung cancer cell line, 4 days
# Description: (§1) Cell growth inhibitory activity of representative BET bromodomain degraders in representative non-small cell lung cancer cell lines was determined using the CellTiter-Glo® Luminescent Cell Viability Assay. Cells were seeded in 384-well white opaque cell culture plates at a density of 2,000 cells/well with serially diluted compounds and incubated at 37° C. in an atmosphere of 95% air and 5% CO2 for 4 days. Cell viability was determined using the CellTiter-Glo® Luminescent Cell Viability Assay Kit (Promega, Madison, Wis.) according to the manufacture's instruction. Briefly, a volume of CellTiter-Glo® Reagent equal to the volume of cell culture medium was added to each well, and then the plates were incubated at room temperature for 10-20 minutes. The luminescent signal was measured using a Tecan Infinite M1000 multimode microplate reader (Tecan, Morrisville, N.C.). The half maximal inhibitory concentration (IC50) was calculated using the GraphPad Prism 5 software (GraphPad Software, La Jolla, Calif.). Cpd. A is a BET bromodomain inhibitor, see U.S. Appl.
# H2444 = assay: Cell growth inhibition (CellTiter-Glo), NSCLC line H2444; type: cell-based; settings: H2444 non-small cell lung cancer cell line, 4 days
# Description: as §1
# H1650 = assay: Cell growth inhibition (CellTiter-Glo), NSCLC line H1650; type: cell-based; settings: H1650 non-small cell lung cancer cell line, 4 days
# Description: as §1
# H1648 = assay: Cell growth inhibition (CellTiter-Glo), NSCLC line H1648; type: cell-based; settings: H1648 non-small cell lung cancer cell line, 4 days
# Description: as §1
# H1869 = assay: Cell growth inhibition (CellTiter-Glo), NSCLC line H1869; type: cell-based; settings: H1869 non-small cell lung cancer cell line, 4 days
# Description: as §1
# H1792 = assay: Cell growth inhibition (CellTiter-Glo), NSCLC line H1792; type: cell-based; settings: H1792 non-small cell lung cancer cell line, 4 days
# Description: as §1
# H2170 = assay: Cell growth inhibition (CellTiter-Glo), NSCLC line H2170; type: cell-based; settings: H2170 non-small cell lung cancer cell line, 4 days
# Description: as §1
# A549 = assay: Cell growth inhibition (CellTiter-Glo), NSCLC line A549; type: cell-based; settings: A549 non-small cell lung cancer cell line, 4 days
# Description: as §1
# H1437 = assay: Cell growth inhibition (CellTiter-Glo), NSCLC line H1437; type: cell-based; settings: H1437 non-small cell lung cancer cell line, 4 days
# Description: as §1
# MDA-MB-231 = assay: Cell growth inhibition (CellTiter-Glo), breast cancer line MDA-MB-231; type: cell-based, human; settings: MDA-MB-231 breast cancer cell line, 4 days
# Description: (§2) Cell growth inhibitory activity of representative BET bromodomain degraders in representative breast cancer cell lines was determined using the CellTiter-Glo® Luminescent Cell Viability Assay. SUM-52 and SUM-159 cell lines were established at the University of Michigan Comprehensive Cancer Center. All the other breast cancer cell lines were obtained from the ATCC (Manassas, Va.). Cells were seeded in 384-well cell culture plates at a density of 1,000-2,500 cells/well with serially diluted compounds and incubated at 37° C. in an atmosphere of 95% air and 5% CO2 for 4 days. Cell viability was determined using the CellTiter-Glo® Luminescent Cell Viability Assay Kit (Promega, Madison, Wis.) according to the manufacture's instruction. Briefly, a volume of CellTiter-Glo® Reagent equal to the volume of cell culture medium was added to each well, and then the plates were incubated at room temperature for 20-60 minutes. The luminescent signal was measured using a Tecan Infinite M1000 multimode microplate reader (Tecan, Morrisville, N.C.). The half maximal inhibitory concentration (IC50) was calculated using the GraphPad Prism 5 software (GraphPad Software, La Jolla, Calif.). “Thd” is thalidomide.
# SUM-52 = assay: Cell growth inhibition (CellTiter-Glo), breast cancer line SUM-52; type: cell-based; settings: SUM-52 breast cancer cell line, 4 days
# Description: as §2
# HCC1937 = assay: Cell growth inhibition (CellTiter-Glo), breast cancer line HCC1937; type: cell-based; settings: 4 days
# Description: as §2
# BT-20 = assay: Cell growth inhibition (CellTiter-Glo), breast cancer line BT-20; type: cell-based; settings: BT-20 breast cancer cell line, 4 days
# Description: as §2
# SUM-159 = assay: Cell growth inhibition (CellTiter-Glo), breast cancer line SUM-159; type: cell-based; settings: SUM-159 breast cancer cell line, 4 days
# Description: as §2
# Lovo = assay: Cell growth inhibition (CellTiter-Glo), colon cancer line Lovo; type: cell-based
# Description: as §1, with “Appl. No. 62/121,637, having the following structure:” for “Appl.”
# (§3) Cell growth inhibitory activity of representative BET bromodomain degraders in representative colon cancer cell lines, see Table 7, was determined as described in Example 17.
# SW48 = assay: Cell growth inhibition (CellTiter-Glo), colon cancer line SW48; type: cell-based
# Description: as §1, with “Appl. No. 62/121,637, having the following structure:” for “Appl.”
# as §3
# RKO = assay: Cell growth inhibition (CellTiter-Glo), colon cancer line RKO; type: cell-based
# Description: as §1, with “Appl. No. 62/121,637, having the following structure:” for “Appl.”
# as §3
# SW948 = assay: Cell growth inhibition (CellTiter-Glo), colon cancer line SW948; type: cell-based
# Description: as §1, with “Appl. No. 62/121,637, having the following structure:” for “Appl.”
# as §3
# SW403 = assay: Cell growth inhibition (CellTiter-Glo), colon cancer line SW403; type: cell-based
# Description: as §1, with “Appl. No. 62/121,637, having the following structure:” for “Appl.”
# as §3
# LS513 = assay: Cell growth inhibition (CellTiter-Glo), colon cancer line LS513; type: cell-based
# Description: as §1, with “Appl. No. 62/121,637, having the following structure:” for “Appl.”
# as §3
# LS411N = assay: Cell growth inhibition (CellTiter-Glo), colon cancer line LS411N; type: cell-based
# Description: as §1, with “Appl. No. 62/121,637, having the following structure:” for “Appl.”
# as §3
# LS1034 = assay: Cell growth inhibition (CellTiter-Glo), colon cancer line LS1034; type: cell-based
# Description: as §1, with “Appl. No. 62/121,637, having the following structure:” for “Appl.”
# as §3
smiles,measurement,setting,value
"CCn1nc(C2CC2)cc1Nc1nc(COC)nc2[nH]c3cc(-c4c(C)noc4C)c(OC)cc3c12 [Cpd. A, reference compound]",IC50,"H1975; Homo sapiens, NCI-H1975, 96 h",40 nM
same,IC50,"H2444; Homo sapiens, NCI-H2444, 96 h",2720 nM
same,IC50,"H1650; Homo sapiens, NCI-H1650, 96 h",430 nM
same,IC50,"H1648; Homo sapiens, NCI-H1648, 96 h",140 nM
same,IC50,H1869; 96 h,60 nM
same,IC50,"H1792; Homo sapiens, NCI-H1792, 96 h",130 nM
same,IC50,"H2170; Homo sapiens, NCI-H2170, 96 h",20 nM
same,IC50,"A549; Homo sapiens, 96 h",20 nM
same,IC50,"H1437; Homo sapiens, NCI-H1437, 96 h",140 nM
same,IC50,"MDA-MB-231; Homo sapiens, 96 h",220 nM
same,IC50,"SUM-52; SUM52, 96 h",390 nM
same,IC50,"HCC1937; Homo sapiens, 96 h",> 5000 nM
same,IC50,"BT-20; Homo sapiens, 96 h",2410 nM
same,IC50,"SUM-159; SUM159, 96 h",510 nM
same,IC50,Lovo; Homo sapiens,44 ± 17 nM
same,IC50,SW48; Homo sapiens,45.7 nM
same,IC50,RKO; Homo sapiens,272 ± 235 nM
same,IC50,SW948; Homo sapiens,> 2500 nM
same,IC50,"SW403; Homo sapiens, SW-403",102 ± 23 nM
same,IC50,"LS513; Homo sapiens, LS-513",915 ± 670 nM
same,IC50,"LS411N; Homo sapiens, LS-411N",110 ± 90 nM
same,IC50,"LS1034; Homo sapiens, LS-1034",455 ± 430 nM
CCn1nc(C2CC2)cc1Nc1nc(C(=O)NCCCOCCOCCOCCCNc2cccc3c2C(=O)N(C2CCC(=O)NC2=O)C3=O)nc2[nH]c3cc(-c4c(C)noc4C)c(OC)cc3c12 (centres unmarked) [Cpd. No. 4],IC50,"H1975; Homo sapiens, NCI-H1975, 96 h",3 nM
same,IC50,"H2444; Homo sapiens, NCI-H2444, 96 h",4 nM
same,IC50,"H1650; Homo sapiens, NCI-H1650, 96 h",4 nM
same,IC50,"H1648; Homo sapiens, NCI-H1648, 96 h",5 nM
same,IC50,H1869; 96 h,9 nM
same,IC50,"H1792; Homo sapiens, NCI-H1792, 96 h",48 nM
same,IC50,"H2170; Homo sapiens, NCI-H2170, 96 h",99 nM
same,IC50,"A549; Homo sapiens, 96 h",119 nM
same,IC50,"H1437; Homo sapiens, NCI-H1437, 96 h",329 nM
same,IC50,"MDA-MB-231; Homo sapiens, 96 h",4 nM
same,IC50,"SUM-52; SUM52, 96 h",8 nM
same,IC50,"HCC1937; Homo sapiens, 96 h",8 nM
same,IC50,"BT-20; Homo sapiens, 96 h",25 nM
same,IC50,"SUM-159; SUM159, 96 h",166 nM
same,IC50,Lovo; Homo sapiens,13 ± 14 nM
same,IC50,SW48; Homo sapiens,6 nM
same,IC50,RKO; Homo sapiens,46 ± 1 nM
same,IC50,SW948; Homo sapiens,197 ± 160 nM
same,IC50,"SW403; Homo sapiens, SW-403",42 ± 10 nM
same,IC50,"LS513; Homo sapiens, LS-513",70 ± 20 nM
same,IC50,"LS411N; Homo sapiens, LS-411N",100 ± 60 nM
same,IC50,"LS1034; Homo sapiens, LS-1034",97 ± 20 nM
CCn1nc(C2CC2)cc1Nc1nc(C(=O)NCCCCNc2cccc3c2C(=O)N(C2CCC(=O)NC2=O)C3=O)nc2[nH]c3cc(-c4c(C)noc4C)c(OC)cc3c12 (centres unmarked) [Cpd. No. 9],IC50,"H1975; Homo sapiens, NCI-H1975, 96 h",16 nM
same,IC50,"H2444; Homo sapiens, NCI-H2444, 96 h",28 nM
same,IC50,"H1650; Homo sapiens, NCI-H1650, 96 h",8 nM
same,IC50,"H1648; Homo sapiens, NCI-H1648, 96 h",22 nM
same,IC50,H1869; 96 h,93 nM
same,IC50,"H1792; Homo sapiens, NCI-H1792, 96 h",151 nM
same,IC50,"H2170; Homo sapiens, NCI-H2170, 96 h",195 nM
same,IC50,"A549; Homo sapiens, 96 h",157 nM
same,IC50,"H1437; Homo sapiens, NCI-H1437, 96 h",818 nM
same,IC50,Lovo; Homo sapiens,46 ± 49 nM
same,IC50,SW48; Homo sapiens,8 nM
same,IC50,RKO; Homo sapiens,241 ± 27 nM
same,IC50,SW948; Homo sapiens,1000 ± 1070 nM
same,IC50,"SW403; Homo sapiens, SW-403",219 ± 190 nM
same,IC50,"LS513; Homo sapiens, LS-513",185 ± 60 nM
same,IC50,"LS411N; Homo sapiens, LS-411N",560 ± 380 nM
same,IC50,"LS1034; Homo sapiens, LS-1034",368 ± 170 nM
"Cc1sc2c(c1C)C(c1ccc(Cl)cc1)=N[C@@H](CC(=O)NCCCCNC(=O)COc1cccc3c1C(=O)N(C1CCC(=O)NC1=O)C3=O)c1nnc(C)n1-2 (some centres unmarked) [dBET1, reference compound]",IC50,H1975,> 5000 nM
same,IC50,H2444,3000 nM
same,IC50,H1650,2300 nM
same,IC50,H1648,> 5000 nM
same,IC50,H1869,> 5000 nM
same,IC50,H1792,> 5000 nM
same,IC50,H2170,> 5000 nM
same,IC50,A549,> 5000 nM
same,IC50,H1437,> 5000 nM
same,IC50,MDA-MB-231,1830 nM
same,IC50,SUM-52,> 5000 nM
same,IC50,HCC1937,> 5000 nM
same,IC50,BT-20,> 5000 nM
same,IC50,SUM-159,> 5000 nM
same,IC50,Lovo,> 5000 nM
same,IC50,SW48,2780 nM
same,IC50,RKO,> 5000 nM
same,IC50,SW948,> 5000 nM
same,IC50,SW403,> 5000 nM
same,IC50,LS513,> 5000 nM
same,IC50,LS411N,> 5000 nM
same,IC50,LS1034,> 5000 nM
